Laboratory results published in patent publication US20030003057A1, “Methods for administering leuprolide by inhalation” (priority 2000, published 2003).

Assay: clinical
Settings: human, in vivo
From the text: Capsules were bottled and the bottles individually enclosed in an appropriately labeled sealed foil pouch with desiccant and stored at room temperature. […] Subjects were instructed to inhale deeply and forcefully while wearing nose clips. Inhalations were followed by a 5 second breath hold prior to exhalation. […] Leuprolide was supplied in multiple dose vials as a sterile aqueous solution for injection. […] The pH was adjusted with sodium hydroxide or acetic acid. Prior to administration, each vial was visually inspected for particulate matter or discoloration. The leuprolide vials were stored at room temperature. […] The injection was given in the opposite arm to that used for blood sample for pharmacokinetic assessments. There were 2 dosing visits, followed by a post study medical 3 to 14 days after the last dose. The interval between doses was no less than 7 days. […] [table] Relative bioavailability: The bioavailability (BA) of the leuprolide formulation delivered from Turbospin, relative to intravenous injection of leuprolide, was determined from the ratio of log-transformed AUC values, according to the following equation, Relative BA=(InAUCPulmoSphere/InAUCiv) * (nominal dosePulmoSphere/doseiv), […]

Question: Which bioavailability does the source give for `CCNC(=O)[C@@H]1CCCN1C(=O)[C@H](CCCNC(=N)N)NC(=O)[C@H](CC(C)C)NC(=O)[C@@H](CC(C)C)NC(=O)[C@H](Cc1ccc(O)cc1)NC(=O)[C@H](CO)NC(=O)[C@H](Cc1c[nH]c2ccccc12)NC(=O)[C@H](Cc1c[nH]cn1)NC(=O)[C@@H]1CCC(=O)N1` [leuprolide] here?
Answer: ~18%
